Earlier results in paper PMC2699040 (European Journal of Immunology, 2007).

How the values were obtained:
[1] = system: CTL line specific for the influenza epitope KTGGAIYKR; conditions: alanine-substituted at all but a single non-MHC anchor position; ref [14]; cited from earlier work
[2] = system: SC21 peripheral blood lymphocytes; conditions: adapted IFN-γ ELISPOT, directly ex vivo; ref [18]; cited from earlier work

Row | Sequence | Recognition by CTL line [1] | HLA-A68-restricted response / antigenicity [2]
1 | ATAAAIAAR | recognise efficiently | 
2 | FHCQVCFTTKALGISYGRKK [Tat4 peptide] |  | An HLA-A68-restricted response
